Experimental findings from ChEMBL document CHEMBL1697821, “Development of a phospholipidosis database and predictive quantitative structure-activity relationship (QSAR) models” (Toxicol Mech Methods, 2008) are described below.

In the series the test system is Phospholipidosis. The series is described as follows: Literature-mined public compounds from Kruhlak et al phospholipidosis modelling dataset.
With `C[C@]12CC[C@H]3[C@@H](CCC4=CC(=O)CC[C@@H]43)[C@@H]1CC[C@@H]2O` [NANDROLONE], the Phospholipidosis entry is listed as “Negative: based on the absence of positive reported data from WMDD”. With `CCCN(CC)C(CC)C(=O)Nc1c(C)cccc1C` (centres undefined) [ETIDOCAINE] the entry was “Negative: based on the absence of positive reported data from WMDD”; with `CC(C)(O/N=C(\C(=O)N[C@@H]1C(=O)N2C(C(=O)[O-])=C(C[n+]3ccccc3)CS[C@H]12)c1csc(N)n1)C(=O)O` [CEFTAZIDIME], “Negative: based on the absence of positive reported data from WMDD”. With `OC(CCCN1CCCCC1)(c1ccccc1)c1ccccc1` [DIPHENIDOL] the entry was “Negative: based on the absence of positive reported data from WMDD”; with `CCCCc1oc2ccccc2c1C(=O)c1cc(I)c(OCCN(CC)CC)c(I)c1` [AMIODARONE], “Positive: strong inducer confirmed by electron microscopy”; with `C1CCC(C(CC2CCCCN2)C2CCCCC2)CC1` (centres undefined) [PERHEXILINE], “Positive: strong inducer confirmed by electron microscopy”. With `C/N=C(\NC)NCc1ccccc1` [BETHANIDINE] the entry was “Negative: based on the absence of positive reported data from WMDD”.

Turning to `CN(C)CCc1c[nH]c2ccc(Cn3cncn3)cc12` [RIZATRIPTAN], the Phospholipidosis result was “Negative: based on the absence of positive reported data from WMDD”.

`O=C(Cn1cnnn1)N[C@@H]1C(=O)N2C(C(=O)O)=C(CSc3nncs3)CS[C@H]12` [CEFTEZOLE]: the Phospholipidosis result is reported as “Negative: based on the absence of positive reported data from WMDD”.
